# Measured values published in publication PMC5993640 (European journal of medicinal chemistry, 2018).
# “And” between values parts separate entries of the source, which are not always exact repeats. Equal entries are not always repeated. Where two headings read alike, the source gives them in different places.
# Experiments:
# Aqueous solubility = assay type: physicochemical; conditions: universal aqueous buffer
# [1] = tested on: HIV-1HXB2 WT and Env gp120 mutated pseudoviruses; assay: microbe, parasite or virus in culture; assay type: cell-based; conditions: Human immunodeficiency virus 1, U87.CD4.CXCR4
# hERG potassium channel = hERG potassium channel (Homo sapiens, UniProt Q12809); assay: hERG channel inhibition, whole-cell patch clamp in HEK293 cells; assay type: cell-based; conditions: HEK293 cells stably transfected with hERG cDNA
# Chain of hERG potassium channel (Q12809 whole entry): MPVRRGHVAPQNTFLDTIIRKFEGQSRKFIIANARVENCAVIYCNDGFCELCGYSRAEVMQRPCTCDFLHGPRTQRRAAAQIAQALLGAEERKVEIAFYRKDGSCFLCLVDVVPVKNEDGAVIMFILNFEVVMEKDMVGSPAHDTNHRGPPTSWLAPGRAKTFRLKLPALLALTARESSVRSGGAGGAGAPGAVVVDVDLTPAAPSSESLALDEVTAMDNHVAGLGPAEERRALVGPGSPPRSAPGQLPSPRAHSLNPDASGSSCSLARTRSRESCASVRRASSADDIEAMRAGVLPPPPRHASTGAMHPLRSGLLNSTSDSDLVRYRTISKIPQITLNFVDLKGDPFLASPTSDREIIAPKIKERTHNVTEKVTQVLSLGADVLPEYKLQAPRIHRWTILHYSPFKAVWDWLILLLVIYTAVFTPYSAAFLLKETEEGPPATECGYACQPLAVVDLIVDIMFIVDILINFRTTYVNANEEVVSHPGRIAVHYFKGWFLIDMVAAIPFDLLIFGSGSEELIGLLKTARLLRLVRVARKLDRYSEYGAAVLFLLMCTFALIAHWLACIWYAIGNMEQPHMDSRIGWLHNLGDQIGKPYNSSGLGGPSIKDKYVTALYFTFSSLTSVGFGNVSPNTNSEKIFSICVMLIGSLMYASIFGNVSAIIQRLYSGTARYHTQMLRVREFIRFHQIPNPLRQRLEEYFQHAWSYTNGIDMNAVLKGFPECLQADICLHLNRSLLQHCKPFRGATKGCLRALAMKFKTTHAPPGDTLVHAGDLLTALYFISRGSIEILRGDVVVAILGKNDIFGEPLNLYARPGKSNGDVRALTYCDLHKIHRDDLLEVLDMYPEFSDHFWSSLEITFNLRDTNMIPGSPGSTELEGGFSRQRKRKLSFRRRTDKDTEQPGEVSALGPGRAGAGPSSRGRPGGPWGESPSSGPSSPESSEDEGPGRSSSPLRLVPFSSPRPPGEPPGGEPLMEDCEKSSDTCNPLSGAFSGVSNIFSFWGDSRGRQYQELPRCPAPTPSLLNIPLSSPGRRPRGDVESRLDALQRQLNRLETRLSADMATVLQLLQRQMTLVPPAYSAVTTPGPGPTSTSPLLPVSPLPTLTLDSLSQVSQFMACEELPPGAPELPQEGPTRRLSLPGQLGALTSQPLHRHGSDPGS
# VSV-G = assay type: cell-based; conditions: U87-CD4-CXCR4 cells
# Plasma protein binding = assay type: in vitro ADME
# [2] = tested on: HIV-1 mediated cell-cell fusion; assay: HIV-1 mediated cell-cell fusion inhibition assay; assay type: cell-based; conditions: HL2/3 effector and TZM-bl target cells
# [3] = Metabolic stability in human liver microsomes; conditions: 3 μM
# [4] = Cytotoxicity in U87-CD4-CXCR4 cells; assay type: cell-based; conditions: human
# [5] = Cytotoxicity in TZM-bl cells; assay type: cell-based; conditions: human
# HIV-1HXB2 = assay type: cell-based
# HIV-1IIIB = assay: Multi-cycle infection assay in MT-2 cells
# TZM-bl cells = assay: Cytotoxicity in TZM-bl cells; assay type: cell-based; conditions: read-out: Toxicity CC50 (TZM-bl)
# MT-2 cells = assay: Cytotoxicity in MT-2 cells; assay type: cell-based; conditions: read-out: Toxicity CC50 (MT-2)
# [6] = pH 7.4, Solubility Range when prepared at 500 μM, With 5% DMSO, pH7.4 (first line)
# [7] = pH 7.4, aqueous solubility, DMSO concentration of 2%
# [8] = read-out: HIV-1IIIB IC50, MT-2 cells, multi-cycle, mean ± SD, n=3
molecule,measurement,setting,value
"COc1cnc(-n2cnc(C)n2)c2[nH]cc(C(=O)C(=O)N3CCN(C(=O)c4ccccc4)CC3)c12 [BMS-626529, reference compound]",solubility at 90 min,Aqueous solubility; [6],100 µM to 500 µM and 47.3 µg/mL to 237 µg/mL
same,IC50,[1],~0.008 µM
COc1cc(N)c(Cl)cc1C(=O)NC1CCN(CCCOc2ccc(F)cc2)CC1OC (centres unmarked) [Cisapride],inhibition at 0.09 µM,hERG potassium channel,85.2 ± 2.3%
"NCC(NC(=O)c1ccc(-c2cc(F)c(Cl)c(F)c2)[nH]1)c1nc(CO)cs1 (centres unmarked) [Compound 39, N-(2-Amino-1-(4-(hydroxymethyl)thiazol-2-yl)ethyl)-5-(4-chloro-3,5-difluorophenyl)-1H-pyrrole-2-carboxamide]",Control VSV-G IC50,VSV-G,poorly active
same,solubility at 90 min,Aqueous solubility; [6],~206 µg/mL
same,solubility at 90 min,Aqueous solubility; [7],100 to 500 µM
same,bound to proteins in human plasma,Plasma protein binding,> 99%
same,IC50 HIV-1 mediated cell-cell fusion,[2],active at slightly higher concentration than NBD-556 and 55
same,parent compound remaining at 120 min (% of 0 min),[3],88.5 to 90.4%
same,CC50 at 3 days,[4],39.3 ± 2.3 µM
"NC[C@@H](NC(=O)c1ccc(-c2ccc(C(F)(F)F)cc2)[nH]1)c1ncc(CO)s1 [Compound 48, N-(2-Amino-1-(5-(hydroxymethyl)thiazol-2-yl)ethyl)-5-(4-(trifluoromethyl)phenyl)-1H-pyrrole-2-carboxamide]",Control VSV-G IC50,VSV-G,poorly active
same,IC50 HIV-1 mediated cell-cell fusion,[2],active at slightly higher concentration than NBD-556 and 55
same,CC50 at 72 h,[5],42.4 ± 1 µM
same,CC50 at 3 days,[4],46.4 ± 4.7 µM
"NC[C@H](NC(=O)c1ccc(-c2ccc(C(F)(F)F)cc2)[nH]1)c1nc(CO)cs1 [Compound 49, N-(2-Amino-1-(4-(hydroxymethyl)thiazol-2-yl)ethyl)-5-(4-(trifluoromethyl)phenyl)-1H-pyrrole-2-carboxamide]",fold enhancement in antiviral potency (IC50) after CH2OH switch C5 to C4,"HIV-1HXB2; HIV-1HXB2 in TZM-bl cells, 39 vs NBD-14107, 49 vs 47, 55 vs 53",~ 3.4 fold
"CNC[C@H](NC(=O)c1ccc(-c2ccc(C(F)(F)F)cc2)[nH]1)c1nc(CO)cs1 [Compound 51, N-(1-(4-(Hydroxymethyl)thiazol-2-yl)-2-(methylamino)ethyl)-5-(4-(trifluoromethyl)phenyl)-1H-pyrrole-2-carboxamide]",IC50,"HIV-1IIIB; Human immunodeficiency virus 1, MT2, read-out: HIV-1IIIB IC50",0.1 µM
"NCC(NC(=O)c1ccc(-c2ccc(C(F)(F)F)c(F)c2)[nH]1)c1nc(CO)cs1 (centres unmarked) [Compound 55, N-(2-Amino-1-(4-(hydroxymethyl)thiazol-2-yl)ethyl)-5-(3-fluoro-4-(trifluoromethyl)-phenyl)-1H-pyrrole-2-carboxamide]",Control VSV-G IC50,VSV-G,poorly active
same,solubility at 90 min,Aqueous solubility; [6],100 µM to 500 µM and 42.4 µg/mL to 214 µg/mL
same,solubility at 90 min,Aqueous solubility; [7],100 to 500 µM
same,bound to proteins in human plasma,Plasma protein binding,> 99%
same,parent compound remaining at 120 min (% of 0 min),[3],88.5 to 90.4%
"N-(2-Amino-1-(5-(hydroxymethyl)oxazol-2-yl)ethyl)-5-(4-chloro-3,5-difluorophenyl)-1H-pyrrole-2-carboxamide [Compound 66]",CC50,TZM-bl cells,30.9 ± 1.7 µM
same,IC50,"HIV-1HXB2; read-out: HIV-1HXB2 IC50, TZM-bl cells, single-cycle, mean ± SD, n=3",0.76 ± 0.1 µM
same,IC50,HIV-1IIIB; [8],0.9 ± 0.1 µM
same,CC50,MT-2 cells,44.7 ± 1.5 µM
"N-(2-Amino-1-(5-(hydroxymethyl)oxazol-2-yl)ethyl)-5-(4-chloro-3,5-difluorophenyl)-1H-pyrrole-2-carboxamide [Compound 67]",CC50,TZM-bl cells,27.7 ± 0.5 µM
same,IC50,HIV-1IIIB; [8],0.8 ± 0.1 µM
same,CC50,MT-2 cells,26.5 ± 2 µM
"N-(2-Amino-1-(5-(hydroxymethyl)thiazol-2-yl)ethyl)-5-(3,5-difluoro-4-(trifluoromethyl)-phenyl)-1H-pyrrole-2-carboxamide [Compound 57]",CC50,TZM-bl cells,23 ± 0.6 µM
same,CC50,MT-2 cells,14.3 ± 0.6 µM
"N-(2-Amino-1-(5-(hydroxymethyl)thiazol-2-yl)ethyl)-5-(3,5-difluoro-4-(trifluoromethyl)-phenyl)-1H-pyrrole-2-carboxamide [Compound 58]",CC50,TZM-bl cells,23.5 ± 0.5 µM
same,CC50,MT-2 cells,15.5 ± 0.45 µM
